Like-named read-outs stand apart in the source and are kept apart here. Non-standard residues stand in square brackets, D forms with d. Residues, ends and D or L forms follow the SMILES beside them. Aoe = N[C@@H](CCCCCC(=O)[C@@H]1CO1)C(=O)O

In series [1] the test system is MM.1S cells. The series can be described thus: Cell cycle profile by flow cytometry (PI staining). The note with it: bortezomib 5 nM alone, 24 h; increased from 14.2%. The format is cell-based, human. The method, then: […] Cells were then stained with propidium iodine (PI, Sigma) (5 μg/ml) and cell cycle profile was determined using program M software on an Epics flow cytometer (Coulter Immunology, Hialeah, Fla.) (44).
In general terms: In flow cytometry, cells or beads pass a laser one at a time.

The test system of series [2] is JNK phosphorylation and caspase/PARP cleavage. The series can be described thus: Western blotting for p21Cip1, p-JNK, caspases and PARP. Format: cell-based, human. The conditions noted are these: MM.1S cells, tubacin 5 μM and/or bortezomib 5 nM, 24 h. On the procedure: (§1) MM cells were cultured with Velcade and/or Tubacin; harvested; washed; and lysed using lysis buffer: 50 mM Tris-HCl (pH 7.4), 150 mM NaCl, 1% NP-40, 5 mM EDTA, 5 mM NaF, 2 mM Na3VO4, 1 mM PMSF, 5 μg/ml leupeptine, and 5 μg/ml aprotinin. Cell lysates were subjected to SDS-PAGE, transferred to PVDF membrane (Bio-Rad Laboratories, Hercules, Calif.), and immunoblotted with Abs against specific proteins.
(§2) Cells cultured with tubacin and/or bortezomib were harvested; washed, and lysed using lysis buffer: 50 mM Tris-HCl (pH 7.4), 150 mM NaCl, 1% NP-40, 5 mM EDTA, 5 mM NaF, 1 mM Na3VO4, 1 mM PMSF, 5 μg/ml leupeptine, and 5 μg/ml aprotinin. Whole cell lysates were subjected to SDS-PAGE, transferred to nitrocellulose membrane (Bio-Rad Laboratories, Hercules, Calif.), and immunoblotted with specific Abs (31). Western blotting was done using anti-HDAC6, acetylated lysine, acetylated histone H3, acetylated histone H4, ubiquitin (Ub), phospho-SAPK (JNK), caspase-8 caspase-9, caspase-3, and PARP Abs (Cell Signaling, Beverly, Mass.); with anti-α-tubulin Ab (Santa Cruz Biotechnology, Santa Cruz, Calif.); as well as with anti-dynein Ab (Sigma, Saint Louis, Mo.). For immunoprecipitation, whole cell lysates were incubated with anti-Ub or dynein Abs overnight at 4° C., and then incubated with protein A/G PLUS-Agarose (Santa Cruz Biotechnology) for 2 h at 4° C., as in our prior study (31). Immunoprecipitates were then subjected to Western blotting for detection of HDAC6 and dynein.
In general terms: Immunoblotting shows a protein as a band on a membrane.

For the next series, the system named is MM.1S and RPMI8226 cells. Description: [3H]-thymidine uptake of MM cells adherent to BMSCs. Format: cell-based, human. The conditions noted are these: MM cells adherent to BMSCs, 24 h. On the procedure: […] DNA synthesis was measured as described above.
After treatment, DNA synthesis was measured by [^3H]-thymidine (Perkin Elmer, Boston Mass.) uptake, as previously described (44). All experiments were performed in quadruplicate.

Series [3] concerns MM.1S cells and RPMI cells. Description: Inhibition of protein catabolism in myeloma cells. The format is cell-based. The conditions noted are these: FIG. 18.
A further series relates to RPMI8226 cells. The note with it: 24 h.
In series [4] the test system is patients with refractory relapsed MM. The note with it: 202 patients; cited from earlier work.
The test system of a further series is MM.1S and RPMI cells. Description: Synergy with Velcade/Bortezomib in myeloma cell lines. Format: cell-based.
The test system of series [5] is tubulin acetylation versus lysine acetylation. The series can be described thus: Immunofluorescence assay for acetylated tubulin versus acetylated lysine. Format: cell-based. The note with it: cells not given. From the text:
The present invention provides an immunofluorescence-based assay for identifying test agents with HDAC and/or TDAC inhibitory activity. The inventive assay is based on the use of specific antibodies for acetylated tubulin and acetylated lysine (i.e., a marker for acetylated histones). […] As described above, any type of agent, including small molecules, polymers, biomolecules, proteins, peptides, polynucleotides, etc., may be screened using the inventive assay. In certain embodiments, small molecules are screened. In certain particular embodiments, the small molecules are tubacin-like or are tubacin derivatives. In certain embodiments, the small molecules are compounds of the present invention. The test agents may also be small molecules purchased, prepared through traditional synthetic techniques, prepared through combinatorial chemistry techniques, or obtained from historical chemical collections. In certain embodiments, the test agents are biomolecules. In other embodiments, the test agents are proteins or peptides. In yet other embodiments, the test agents are polynucleotides. In certain embodiments, the test agents are polymers.
The assay involves contacting cells with a specific concentration of the test agent under specific conditions. […] There particular parameters may be determined by the operator or scientist conducting the assay as would be appreciated by one of skill in this art. After a determined time of incubation with the test compound, the cells are treated with a first primary antibody directed against acetylated tubulin and a second primary antibody directed against acetylated lysine. […] The signal from each of the secondary antibodies is measured and optionally quantitated to determine the amount of TDAC and HDAC inhibition under the specified conditions with the test agent. Optionally, the extent of inhibition is determined relative to a control in which no test agent was added. In certain embodiments, the secondary antibody is left out and the primary antibodies are uniquely labeled for identification and optionally quantification. […]

Series [6] concerns the target T1, HDAC6 (Homo sapiens, UniProt Q9UBN7).
T1 sequence (Q9UBN7 1-1215): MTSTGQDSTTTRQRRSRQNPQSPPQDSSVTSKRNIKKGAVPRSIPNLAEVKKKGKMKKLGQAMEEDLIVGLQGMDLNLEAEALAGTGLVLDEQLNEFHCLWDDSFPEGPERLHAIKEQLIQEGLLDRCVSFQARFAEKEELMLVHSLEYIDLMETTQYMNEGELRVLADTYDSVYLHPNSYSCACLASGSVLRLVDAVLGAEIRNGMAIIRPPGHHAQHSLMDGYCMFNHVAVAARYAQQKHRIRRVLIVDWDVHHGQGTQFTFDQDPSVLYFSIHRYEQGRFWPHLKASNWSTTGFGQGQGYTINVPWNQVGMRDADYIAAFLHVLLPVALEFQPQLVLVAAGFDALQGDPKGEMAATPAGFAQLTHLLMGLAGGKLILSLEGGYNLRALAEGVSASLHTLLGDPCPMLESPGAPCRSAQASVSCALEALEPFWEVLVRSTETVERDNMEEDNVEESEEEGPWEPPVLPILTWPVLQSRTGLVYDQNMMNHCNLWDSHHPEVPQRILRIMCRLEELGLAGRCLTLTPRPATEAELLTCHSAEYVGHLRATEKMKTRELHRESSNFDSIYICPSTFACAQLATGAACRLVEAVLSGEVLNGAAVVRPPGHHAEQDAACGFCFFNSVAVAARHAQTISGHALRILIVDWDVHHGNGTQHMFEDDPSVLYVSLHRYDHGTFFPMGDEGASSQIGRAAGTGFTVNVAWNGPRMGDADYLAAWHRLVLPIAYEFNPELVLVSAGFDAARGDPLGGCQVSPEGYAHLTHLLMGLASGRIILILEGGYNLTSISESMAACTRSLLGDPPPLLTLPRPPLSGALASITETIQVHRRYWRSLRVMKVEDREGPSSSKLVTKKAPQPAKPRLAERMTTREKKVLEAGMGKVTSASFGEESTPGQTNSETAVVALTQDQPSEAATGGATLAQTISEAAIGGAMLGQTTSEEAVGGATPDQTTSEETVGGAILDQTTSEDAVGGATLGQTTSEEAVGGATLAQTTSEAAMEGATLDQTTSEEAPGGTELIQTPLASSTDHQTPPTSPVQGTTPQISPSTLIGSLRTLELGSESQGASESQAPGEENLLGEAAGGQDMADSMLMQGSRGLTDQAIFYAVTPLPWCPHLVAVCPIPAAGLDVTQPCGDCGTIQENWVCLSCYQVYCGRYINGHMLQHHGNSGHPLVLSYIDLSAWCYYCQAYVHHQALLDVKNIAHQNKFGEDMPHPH
The note with it: stated property of control compound; cited from earlier work.

Series [7] relates to MM.1S cells. The series can be described thus: MTT assay with niltubacin or HDAC6 siRNA, with or without bortezomib. The format is cell-based, human. The conditions noted are these: niltubacin 2.5 and 5 μM, 5 nM bortezomib. On the procedure: The inhibitory effect of bortezomib and/or tubacin on MM cell growth was assessed by measuring 3-(4,5-dimethylthiazol-2-yl)-2,5-diphenyl tetrazolium bromide (MTT) dye absorbance, as described previously (33). […] All experiments were performed in quadruplicate.
MM.1S cells were transiently transfected with HDAC6 siRNA (Dharmacon Inc., Lafayette, Colo.) using “Cell Line Nucleofecto™ Kit V,” according to manufacturer's (Amaxa Biosystems, Gaithersburg, Md.) instructions (33). Following transfection, MM.1S cells were subjected to Western blotting and MTT assay, in the presence or absence of bortezomib.
In general terms: Tetrazolium dyes change colour on reduction, which living cells bring about.

The target of series [8] is T1, HDAC6. The series can be described thus: Western blotting with anti-acetylated lysine / HDAC6 Abs. The format is cell-based. Details: MM.1S, U266, INA-6, RPMI8226, and RPMI-LR5 MM cell lines constitutively express HDAC6; endogenous in cells; host or cells: MM.1S, RPMI8226 and other MM cell lines; MM patient BMPCs/PBMCs. The conditions noted are these: niltubacin 2.5 and 5 μM, 24 h, MM.1S cells. On the procedure:
as §1, §2

With `CC(C)C[C@H](NC(=O)[C@H](Cc1ccccc1)NC(=O)c1cnccn1)B(O)O` [bortezomib], the “G2M phase MM.1S cells” value in the series on MM.1S cells [1] amounted to 39.5%. In addition, the “phosphorylation of JNK and caspase/PARP cleavage” value in [2] is “induces only modest phosphorylation of JNK as well as caspase-9, -8, -3 and PARP cleavage”. For the same compound, the “BMSC-induced [3H]-thymidine uptake / MM cell growth with BMSCs, single agent” value with MM.1S and RPMI8226 cells is “inhibits BMSC-induced [^3H]-thymidine uptake in a dose-dependent fashion”. For the same compound, the “inhibition of protein catabolism” value in [3] is “potent inhibitors of protein catabolism”. The RPMI8226 cell death with RPMI8226 cells (5 nM bortezomib alone) worked out at 26%. This compound also gave an RPMI8226 cell death with RPMI8226 cells (10 nM bortezomib alone) of 66%. In addition, in series [4], the “complete and near complete responses” value is recorded as 10%; the “patients who did not respond” value was 65%; the responses is on record as 35%.
Take `O=C(CCCCCCC(=O)Nc1ccc(C2OC(CSc3nc(-c4ccccc4)c(-c4ccccc4)o3)CC(c3ccccc3)O2)cc1)NO` (centres unmarked) [DHM-Tubacin, des(hydromethyl)-Tubacin]: the “synergy with Velcade” value with MM.1S and RPMI cells (MM.1S and RPMI cells) was “synergy”. Moreover, in series [5], the “specificity for tubulin acetylation versus lysine acetylation” value is “specificity”.
Consider `Cc1[nH]c2ccccc2c1CCNCc1ccc(/C=C/C(=O)NO)cc1` [LBH589, reference compound], for which the “toxicity and synergy with Bortezomib” value is “toxicity and synergy” in the series with MM.1S and RPMI cells (MM.1S cells); “toxicity and synergy” in the series with MM.1S and RPMI cells (RPMI-8226 cells).
Regarding `CC(/C=C/C(=O)NO)=C\[C@@H](C)C(=O)c1ccc(N(C)C)cc1` [Trichostatin], the “inhibition of HDAC6” value at HDAC6 [6] is listed as “potent inhibitor of both HDAC6 domains”.
For `O=C1N[C@@H](Cc2ccccc2)C(=O)N2CCC[C@@H]2C(=O)N[C@@H](CCCCCC(=O)[C@@H]2CO2)C(=O)N[C@H]1Cc1ccccc1` [trapoxin] (cyclo(FF[dP][Aoe])), the “inhibition of HDAC6” value on HDAC6 [6] was “does not inhibit HDAC6”.
`O=C(O)CCCCCCC(=O)Nc1ccc([C@H]2O[C@@H](CSc3nc(-c4ccccc4)c(-c4ccccc4)o3)C[C@@H](c3ccc(CO)cc3)O2)cc1` [niltubacin, reference compound]: the “enhancement of cytotoxicity induced by bortezomib” value in the series with MM.1S cells [7] is “does not affect either acetylation of α-tubulin (FIG. 4F) or enhance cytotoxicity”. Also, on HDAC6 [8], the “acetylation of α-tubulin” value is “does not affect”.
